Results reported in US20250346593A1, “IMIDAZO(1,2-1)PYRIDINE DERIVATIVES AS RIPK2 INHIBITORS” (Interline Therapeutics, Inc., priority 2022, published 2025).
Where two headings read alike, the source gives them in different places.

Columns and labels:
[1] = target: GST-RIPK2 fusion protein (human RIPK2 amino acids 1-310) (Homo sapiens (Human), UniProt O43353); assay: RIPK2 binding competition assay (TR-FRET, Tracer 199)
[2] = system: NF-κB pathway (SEAP) in THP1-Dual cells; assay: THP-1 Dual cell SEAP assay (L18-MDP stimulated); type: cell-based; details: read-out: NFkB THP1 IC50
[3] = read-out: RIPK2 IC50, RIPK2 binding competition assay

Sequence of GST-RIPK2 fusion protein (human RIPK2 amino acids 1-310) (O43353 1-310): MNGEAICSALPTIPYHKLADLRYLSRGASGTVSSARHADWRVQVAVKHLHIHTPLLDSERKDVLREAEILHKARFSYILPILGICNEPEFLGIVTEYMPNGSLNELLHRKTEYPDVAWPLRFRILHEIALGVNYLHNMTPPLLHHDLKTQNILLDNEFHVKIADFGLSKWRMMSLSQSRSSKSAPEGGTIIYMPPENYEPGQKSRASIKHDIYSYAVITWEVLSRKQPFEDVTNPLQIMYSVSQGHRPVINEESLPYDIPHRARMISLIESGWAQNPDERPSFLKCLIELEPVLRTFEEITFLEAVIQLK

| Structure (SMILES) | IC50 [1] | IC50 ([2]; Homo sapiens, THP1-Dual) | further results |
| --- | --- | --- | --- |
| COc1cc2ncc(-c3cc(F)nc(NCCC(C)O)c3)n2cc1S(=O)(=O)C(C)(C)C (racemic) [Example 190, rac-4-((4-(6-(tert-butylsulfonyl)-7-methoxyimidazo[1,2-a]pyridin-3-yl)-6-fluoropyridin-2-yl)amino)butan-2-ol] | < 1 nM |  |  |
| COc1cc2ncc(-c3cc(F)nc(N[C@@H]4CC[C@H](O)C4)c3)n2cc1S(=O)(=O)C(C)(C)C (racemic) [Example 192, rac-(1R,3S)-3-((4-(6-(tert-butylsulfonyl)-7-methoxyimidazo[1,2-a]pyridin-3-yl)-6-fluoropyridin-2-yl)amino)cyclopentan-1-ol] | < 1 nM | < 50 nM |  |
| COc1cc2ncc(-c3cc(F)nc(N[C@@H]4CC[C@@H](O)C4)c3)n2cc1S(=O)(=O)C(C)(C)C (racemic) [Example 197, rac-(1R,3R)-3-((4-(6-(tert-butylsulfonyl)-7-methoxyimidazo[1,2-a]pyridin-3-yl)-6-fluoropyridin-2-yl)amino)cyclopentan-1-ol] | 1 to 2.5 nM | < 50 nM |  |
| COc1cc2ncc(-c3cc(F)nc(N[C@@H]4CCC[C@@H](O)C4)c3)n2cc1S(=O)(=O)C(C)(C)C (racemic) [Example 205, rac-(1R,3R)-3-((4-(6-(tert-butylsulfonyl)-7-methoxyimidazo[1,2-a]pyridin-3-yl)-6-fluoropyridin-2-yl)amino)cyclohexan-1-ol] | 1 to 2.5 nM | 50 to 250 nM |  |
| COc1cc2ncc(-c3cc(F)nc(NC4CCCC[C@H]4O)c3)n2cc1S(=O)(=O)C(C)(C)C (mixture of isomers) [Example 225, (1R,2R & 1S,2S)-2-((4-(6-(tert-butylsulfonyl)-7-methoxyimidazo[1,2-a]pyridin-3-yl)-6-fluoropyridin-2-yl)amino)cyclohexan-1-ol] | 2.5 to 20 nM | 250 to 1000 nM |  |
| CCOc1cc2ncc(-c3cc(F)nc(NCCC(O)CC)c3)n2cc1S(=O)(=O)C(C)C (racemic) [Example 246, Rac-1-({4-[7-ethoxy-6-(propane-2-sulfonyl)imidazo[1,2-a]pyridin-3-yl]-6-fluoropyridin-2-yl}amino)pentan-3-ol] | < 1 nM | < 50 nM |  |
| COc1cc2ncc(-c3cc(F)nc(NCCC(C)O)c3)n2cc1S(=O)(=O)C(C)(C)C (single isomer, unassigned) [Example 169, 4-((4-(6-(tert-butylsulfonyl)-7-methoxyimidazo[1,2-a]pyridin-3-yl)-6-fluoropyridin-2-yl)amino)butan-2-ol] | < 1 nM | < 50 nM |  |
| COc1cc2ncc(-c3cc(F)nc(NCCC(C)O)c3)n2cc1S(=O)(=O)C(C)(C)C (single isomer, unassigned) [Example 170, 4-((4-(6-(tert-butylsulfonyl)-7-methoxyimidazo[1,2-a]pyridin-3-yl)-6-fluoropyridin-2-yl)amino)butan-2-ol] |  |  | IC50 [1, 3]: < 1 nM; IC50 [2]: < 50 nM |
| COc1cc2ncc(-c3cc(F)nc(NC[C@@H]4CCNC(=O)C4)c3)n2cc1S(=O)(=O)C(C)(C)C (single isomer, unassigned) [Example 238, (4R or S)-4-[({6-fluoro-4-[7-methoxy-6-(2-methylpropane-2-sulfonyl)imidazo[1,2-a]pyridin-3-yl]pyridin-2-yl}amino)methyl]pi peridin-2-one] | 1 to 2.5 nM | 50 to 250 nM |  |
| COc1cc2ncc(-c3ccnc(F)c3)n2cc1S(=O)(=O)C(C)(C)C [Example 5, 6-(tert-butylsulfonyl)-3-(2-fluoropyridin-4-yl)-7-methoxyimidazo[1,2-a]pyridine] | 2.5 to 20 nM |  |  |
| COc1cc2ncc(-c3ccnc(N)c3)n2cc1S(=O)(=O)C(C)(C)C [Example 11, 4-[7-methoxy-6-(2-methylpropane-2-sulfonyl)imidazo[1,2-a]pyridin-3-yl]pyridin-2-amine] |  | 250 to 1000 nM |  |
| COc1cc2ncc(-c3cc(C)nc(F)c3)n2cc1S(=O)(=O)C(C)(C)C [Example 12, 2-fluoro-4-[7-methoxy-6-(2-methylpropane-2-sulfonyl)imidazo[1,2-a]pyridin-3-yl]-6-methylpyridine] | 2.5 to 20 nM |  |  |
| COc1ccc(-c2cnc3cc(OC)c(S(=O)(=O)C4CC4)cn23)cc1N [Example 33, 5-(6-(cyclopropylsulfonyl)-7-methoxyimidazo[1,2-a]pyridin-3-yl)-2-methoxyaniline] |  |  | IC50 [1, 3]: > 20 nM |
| COc1ccc(-c2cnc3cc(OC)c(S(=O)(=O)C(C)(C)C)cn23)cc1F [Example 63, 6-(tert-butylsulfonyl)-3-(3-fluoro-4-methoxyphenyl)-7-methoxyimidazo[1,2-a]pyridine] | 2.5 to 20 nM |  |  |
| COc1cc2ncc(-c3ccc(N)c(C#N)c3)n2cc1S(=O)(=O)C(C)(C)C [Example 70, 2-amino-5-(6-(tert-butylsulfonyl)-7-methoxyimidazo[1,2-a]pyridin-3-yl)benzonitrile] | 2.5 to 20 nM |  |  |
| COc1cc2ncc(-c3ccc(O)cc3)n2cc1S(=O)(=O)C(C)(C)C [Example 149, 4-(6-(tert-butylsulfonyl)-7-methoxyimidazo[1,2-a]pyridin-3-yl)phenol] |  | 250 to 1000 nM |  |

| Structure (SMILES) | IC50 [1] | IC50 ([2]; Homo sapiens, THP1-Dual) | further results |
| --- | --- | --- | --- |
| COc1cc2ncc(-c3cc(Cl)ncc3C)n2cc1S(=O)(=O)C(C)(C)C [Example 159, 6-(tert-Butylsulfonyl)-3-(2-chloro-5-methylpyridin-4-yl)-7-methoxyimidazo[1,2-a]pyridine] |  |  | IC50 [1, 3]: > 20 nM |
| CC(C)(C)S(=O)(=O)c1ccc2ncc(-c3cc(F)nc(NCCC4(O)CC4)c3)n2c1 [Example 172, 1-(2-((4-(6-(tert-butylsulfonyl)imidazo [1,2-a]pyridin-3-yl)-6-fluoropyridin-2-yl)amino)ethyl)cyclo-propan-1-ol] | 1 to 2.5 nM |  |  |
| CC(C)(C)S(=O)(=O)c1ccc2ncc(-c3cc(F)nc(NCCCO)c3)n2c1 [Example 173, 3-((4-(6-(tert-butylsulfonyl)imidazo [1,2-a]pyridin-3-yl)-6-fluoropyridin-2-yl)amino)propan-1-ol] | 2.5 to 20 nM |  |  |
| COc1cc2ncc(-c3cc(F)nc(NC4CC4)c3)n2cc1S(=O)(=O)C(C)(C)C [Example 177, 4-(6-(tert-butylsulfonyl)-7-methoxyimidazo[1,2-a]pyridin-3-yl)-N-cyclopropyl-6-fluoropyridin-2-amine] |  |  | IC50 [1, 3]: < 1 nM |
| COc1cc2ncc(-c3cc(F)nc(NCCC4(O)CCC4)c3)n2cc1S(=O)(=O)C(C)(C)C [Example 187, 1-(2-((4-(6-(tert-butylsulfonyl)-7-methoxyimidazo[1,2-a]pyridin-3-yl)-6-fluoropyridin-2-yl)amino)ethyl)cyclo-butan-1-ol] |  |  | IC50 [1, 3]: < 1 nM |
| COc1cc2ncc(-c3cc(F)nc(NCCC(C)(C)O)c3)n2cc1S(=O)(=O)C(C)(C)C [Example 189, 4-((4-(6-(tert-butylsulfonyl)-7-methoxyimidazo[1,2-a]pyridin-3-yl)-6-fluoropyridin-2-yl)amino)-2-methylbutan-2-ol] |  |  | IC50 [1, 3]: < 1 nM |
| COc1cc2ncc(-c3cc(F)nc(NC4CC(O)C4)c3)n2cc1S(=O)(=O)C(C)(C)C (stereo not shown) [Example 191, (1s,3s)-3-((4-(6-(tert-butylsulfonyl)-7-methoxyimidazo[1,2-a]pyridin-3-yl)-6-fluoropyridin-2-yl)amino)cyclobutan-1-ol] |  | < 50 nM |  |
| COc1cc2ncc(-c3cc(F)nc(N[C@H]4C[C@@H](O)C4)c3)n2cc1S(=O)(=O)C(C)(C)C [Example 191, (1s,3s)-3-((4-(6-(tert-butylsulfonyl)-7-methoxyimidazo[1,2-a]pyridin-3-yl)-6-fluoropyridin-2-yl)amino)cyclobutan-1-ol] | < 1 nM |  |  |
| COc1cc2ncc(-c3cc(F)nc(NC4CCC(O)CC4)c3)n2cc1S(=O)(=O)C(C)(C)C (stereo not shown) [Example 204, (1r,4r)-4-((4-(6-(tert-butylsulfonyl)-7-methoxyimidazo[1,2-a]pyridin-3-yl)-6-fluoropyridin-2-yl)amino)cyclohexan-1-ol] |  | 50 to 250 nM |  |
| COc1cc2ncc(-c3cc(F)nc(N[C@H]4CC[C@H](O)CC4)c3)n2cc1S(=O)(=O)C(C)(C)C [Example 204, (1r,4r)-4-((4-(6-(tert-butylsulfonyl)-7-methoxyimidazo[1,2-a]pyridin-3-yl)-6-fluoropyridin-2-yl)amino)cyclohexan-1-ol] | 1 to 2.5 nM |  |  |
| COc1cc2ncc(-c3cc(F)nc(N4CC5(C4)CC(O)(C(F)(F)F)C5)c3)n2cc1S(=O)(=O)C(C)(C)C [Example 217, 2-{6-fluoro-4-[7-methoxy-6-(2-methylpropane-2-sulfonyl)imidazo[1,2-a]pyridin-3-yl]pyridin-2-yl}-6-(trifluoromethyl)-2-azaspiro[3.3]heptan-6-ol] | 2.5 to 20 nM |  |  |
| COc1cc2ncc(-c3cc(F)nc(N4CC5(CC(O)C5)C4)c3)n2cc1S(=O)(=O)C(C)(C)C [Example 218, 2-{6-fluoro-4-[7-methoxy-6-(2-methylpropane-2-sulfonyl)imidazo[1,2-a]pyridin-3-yl]pyridin-2-yl}-2-azaspiro[3.3]heptan-6-o1] | 2.5 to 20 nM |  |  |
| COc1cc2ncc(-c3cc(F)nc(N[C@H]4C[C@H](OC)C4)c3)n2cc1S(=O)(=O)C(C)(C)C [Example 219, 6-fluoro-4-[7-methoxy-6-(2-methylpropane-2-sulfonyl)imidazo[1,2-a]pyridin-3-yl]-N-[(trans)-3-methoxycyclobutyl] pyridin-2-amine] | 1 to 2.5 nM |  |  |
| COc1cc2ncc(-c3cc(F)nc(N[C@H]4C[C@@H](OC)C4)c3)n2cc1S(=O)(=O)C(C)(C)C [Example 220, 6-fluoro-4-[7-methoxy-6-(2-methylpropane-2-sulfonyl)imidazo[1,2-a]pyridin-3-yl]-N-[cis-3-methoxycyclobutyl] pyridin-2-amine] | 1 to 2.5 nM |  |  |
| CC(C)(C)S(=O)(=O)c1ccn2ncc(-c3ccc(NCCCO)nc3F)c2c1 [Example 297, 3-((5-(5-(tert-butylsulfonyl)pyrazolo[1,5-a]pyridin-3-yl)-6-fluoropyridin-2-yl)amino)propan-1-ol] |  |  | IC50 [1, 3]: > 20 nM |
| COc1cc2ncc(-c3cc(F)nc(NCCCNC(C)=O)c3)n2cc1S(=O)(=O)C(C)(C)C [Example 318, N-[3-({6-fluoro-4-[7-methoxy-6-(2-methylpropane-2-sulfonyl)imidazo [1,2-a]pyridin-3-yl]pyridin-2-yl}amino)propyl] acetamide] | 1 to 2.5 nM |  |  |
